This is an account of results in patent US20070249844A1, “Pyrazole derivatives and process for the production thereof” (Ihara Chemical Industry Co., Ltd., priority 2002, published 2007).

Regarding `Cn1nc(C(F)(F)F)c(CS(=O)(=O)C2=NOC(C)(C3CC3)C2)c1OC(F)F` (stereo not drawn), the melting point (as a rule, the temperature, or range, at which the solid turns liquid) is 96 to 98 °C. In the case of `CCCn1nc(C(F)(F)F)c(CS(=O)(=O)C2=NOC(C)(C)C2)c1OCC(F)(F)F` it was 49 to 51 °C; in that of `Br.CCn1nc(C(F)(F)F)c(CSC(=N)N)c1OC(F)F`, 139 to 141 °C; in that of `CC1CC(S(=O)(=O)Cc2c(C(F)(F)F)nn(C)c2OC(F)F)=NO1` (stereo not drawn), 106 to 107 °C. `CCn1nc(C(F)(F)F)c(C)c1O` returned a melting point of 150 to 152 °C. `CC(C)n1nc(C(F)(F)F)c(CS(=O)(=O)C2=NOC(C)(C)C2)c1OCC(F)(F)F` had a melting point of 109 to 110 °C.

`Cn1nc(C(F)(F)F)c(CS(=O)(=O)C2=NOC(C)(C)C2)c1OCC(F)(F)F`: the melting point lay within 93 to 95 °C.

The molecule `CCCn1nc(C(F)(F)F)c(C)c1O` showed a melting point of 133 to 134 °C. In the case of `CCC1(C)CC(S(=O)(=O)Cc2c(C(F)(F)F)nn(C)c2OC(F)F)=NO1` (stereo not drawn) it was 77 to 78 °C.

As for `Cn1nc(C(F)(F)F)c(CS(=O)(=O)C2=NOC(C)(C)C2)c1OCC(F)F`, the melting point lay within 89 to 91 °C. For `Cn1nc(C(F)(F)F)c(CS(=O)(=O)C2=NOCC2)c1OC(F)F`, the melting point is 115 to 117 °C. `CC(C)n1nc(C(F)(F)F)c(CS(=O)(=O)C2=NOC(C)(C)C2)c1OCC(F)F` came in with a melting point of 88 to 89 °C. In the case of `CCn1nc(C(F)(F)F)c(CS(=O)(=O)C2=NOC(C)(C)C2)c1OC(F)F`, the melting point fell in the range of 98 to 100 °C. As for `CCn1nc(C(F)(F)F)c(CS(=O)(=O)C2=NOC(C)(C)C2)c1OCC(F)(F)F`, the figure is 84 to 86 °C. As for `CC(C)C1CC(S(=O)(=O)Cc2c(C(F)(F)F)nn(C)c2OC(F)F)=NO1` (stereo not drawn), the figure is 85 to 86 °C; as for `Cn1nc(C(F)(F)F)c(CSC2=NOC(C)(C)C2)c1OC(F)F`, 39 to 40 °C; as for `CC1(C)CC(S(=O)(=O)Cc2c(C(F)(F)F)nn(C(C)(C)C)c2OCC(F)(F)F)=NO1`, 91 to 92 °C. In the case of `Cn1nc(C(F)(F)F)c(CS(=O)(=O)C2=NOC3CCCCC23)c1OC(F)F` (stereo not drawn) it was 97 to 98 °C.
